# Reference: patent US6054435A, “6-O-substituted macrolides having antibacterial activity” (priority 1999, dated 2000)
# Assays:
# Test in all cases: in vitro antibacterial activity (MIC), agar dilution
# Format in all cases: cell-based
# [1] = system: Streptococcus Pneumonia GYR 1171; conditions: organism code YY; BHI agar, 35-37° C., 20 to 24 hours; unit assumed
# Description: (§1) Representative compounds of the present invention were assayed in vitro for antibacterial activity as follows: Twelve petri dishes containing successive aqueous dilutions of the test compound mixed with 10 mL of sterilized Brain Heart Infusion (BHI) agar (Difco 0418-01-5) were prepared. Each plate was inoculated with 1:100 (or 1:10 for slow-growing strains, such as Micrococcus and Streptococcus) dilutions of up to 32 different microorganisms, using a Steers replicator block. […] In addition, a control plate, using BHI agar containing no test compound, was prepared and incubated at the beginning and end of each test.
# (§2) An additional plate containing a compound having known susceptibility patterns for the organisms being tested and belonging to the same antibiotic class as the test compound was also prepared and incubated as a further control, as well as to provide test-to-test comparability.
# (§3) After incubation, each plate was visually inspected. The minimum inhibitory concentration (MIC) was defined as the lowest concentration of drug yielding no growth, a slight haze, or sparsely isolated colonies on the inoculum spot as compared to the growth control.
# [2] = system: Candida albicans CCH 442; conditions: organism code TT; BHI agar, 35-37° C., 20 to 24 hours; unit assumed
# Description: as §1, §2, §3
# [3] = system: Streptococcus pyogenes PIU 2548; conditions: organism code NN; BHI agar, 35-37° C., 20 to 24 hours; unit assumed
# Description: as §1, §2, §3
# [4] = system: Micrococcus luteus ATCC 4698; conditions: organism code PP; BHI agar, 35-37° C., 20 to 24 hours; unit assumed
# Description: as §1, §2, §3
# [5] = system: Escherichia coli DC-2; conditions: organism code SS; BHI agar, 35-37° C., 20 to 24 hours; unit assumed
# Description: as §1, §2, §3
# [6] = system: Staphylococcus aureus NCTC10649M; conditions: organism code EE; BHI agar, 35-37° C., 20 to 24 hours; unit assumed
# Description: as §1, §2, §3
# [7] = system: Staphylococcus aureus ATCC 6538P; conditions: organism code AA; BHI agar, 35-37° C., 20 to 24 hours; unit assumed
# Description: as §1, §2, §3
# [8] = system: Staphylococcus aureus 1775; conditions: organism code GG; BHI agar, 35-37° C., 20 to 24 hours; unit assumed
# Description: as §1, §2, §3
# [9] = system: Staphylococcus aureus CMX 553; conditions: organism code FF; BHI agar, 35-37° C., 20 to 24 hours; unit assumed
# Description: as §1, §2, §3
# [10] = system: Enterococcus faecium ATCC 8043; conditions: organism code II; BHI agar, 35-37° C., 20 to 24 hours; unit assumed
# Description: as §1, §2, §3
# [11] = system: Staphylococcus epidermidis 3519; conditions: organism code HH; BHI agar, 35-37° C., 20 to 24 hours; unit assumed
# Description: as §1, §2, §3
# [12] = system: Micrococcus luteus ATCC 9341; conditions: organism code OO; BHI agar, 35-37° C., 20 to 24 hours; unit assumed
# Description: as §1, §2, §3
# [13] = system: Streptococcus agalactiae CMX 508; conditions: organism code KK; BHI agar, 35-37° C., 20 to 24 hours; unit assumed
# Description: as §1, §2, §3
# [14] = system: Escherichia coli JUHL; conditions: organism code QQ; BHI agar, 35-37° C., 20 to 24 hours; unit assumed
# Description: as §1, §2, §3
# [15] = system: Mycobacterium smegmatis ATCC 114; conditions: organism code UU; BHI agar, 35-37° C., 20 to 24 hours; unit assumed
# Description: as §1, §2, §3
# [16] = system: Streptococcus Pneumonia 5979; conditions: organism code ZZ; BHI agar, 35-37° C., 20 to 24 hours; unit assumed
# Description: as §1, §2, §3
# [17] = system: Staphylococcus aureus CMX 642A; conditions: organism code DD; BHI agar, 35-37° C., 20 to 24 hours; unit assumed
# Description: as §1, §2, §3
# [18] = system: Streptococcus pyogenes EES61; conditions: organism code LL; BHI agar, 35-37° C., 20 to 24 hours; unit assumed
# Description: as §1, §2, §3
# [19] = system: Streptococcus Pneumonia ATCC6303; conditions: organism code XX; BHI agar, 35-37° C., 20 to 24 hours; unit assumed
# Description: as §1, §2, §3
# [20] = system: Escherichia coli SS; conditions: organism code RR; BHI agar, 35-37° C., 20 to 24 hours; unit assumed
# Description: as §1, §2, §3
# [21] = system: Staphylococcus aureus A-5278; conditions: organism code CC; BHI agar, 35-37° C., 20 to 24 hours; unit assumed
# Description: as §1, §2, §3
# [22] = system: Streptococcus Pneumonia 5649; conditions: organism code ZZA; BHI agar, 35-37° C., 20 to 24 hours; unit assumed
# Description: as §1, §2, §3
# [23] = system: Streptococcus bovis A-5169; conditions: organism code JJ; BHI agar, 35-37° C., 20 to 24 hours; unit assumed
# Description: as §1, §2, §3
# [24] = system: Staphylococcus aureus A5177; conditions: organism code BB; BHI agar, 35-37° C., 20 to 24 hours; unit assumed
# Description: as §1, §2, §3
# [25] = system: Haemophilis Influenzae DILL AMP R; conditions: organism code WW; BHI agar, 35-37° C., 20 to 24 hours; unit assumed
# Description: as §1, §2, §3
# [26] = system: Nocardia Asteroides ATCC9970; conditions: organism code VV; BHI agar, 35-37° C., 20 to 24 hours; unit assumed
# Description: as §1, §2, §3
# [27] = system: Streptococcus pyogenes 930; conditions: organism code MM; BHI agar, 35-37° C., 20 to 24 hours; unit assumed
# Description: as §1, §2, §3
Structure (SMILES),MIC [1] [µg/mL],MIC [2] [µg/mL],MIC [3] [µg/mL],MIC [4] [µg/mL],MIC [5] [µg/mL],MIC [6] [µg/mL],MIC [7] [µg/mL],MIC [8] [µg/mL],MIC [9] [µg/mL],MIC [10] [µg/mL],MIC [11] [µg/mL],MIC [12] [µg/mL],MIC [13] [µg/mL],MIC [14] [µg/mL],MIC [15] [µg/mL],MIC [16] [µg/mL],MIC [17] [µg/mL],MIC [18] [µg/mL],MIC [19] [µg/mL],MIC [20] [µg/mL],further results
CC[C@H]1OC(=O)[C@H](C)C(=O)[C@H](C)[C@@H](O[C@@H]2O[C@H](C)C[C@H](N(C)C)[C@H]2O)[C@](C)(OC/C=C/c2cnc(-c3ncc(Br)s3)s2)C[C@@H](C)C(=O)[C@H](C)[C@H]2NC(=O)O[C@@]21C [Example 56],0.015,> 100,0.39,0.39,> 100,0.39,0.2,50,0.2,0.05,0.2,0.05,0.05,> 10,0.39,4,0.2,0.05,0.015,0.78,MIC [21]: 100 µg/mL; MIC [22]: 0.25 µg/mL; MIC [23]: 0.05 µg/mL; MIC [24]: 0.2 µg/mL; MIC [25]: 8 µg/mL; MIC [26]: 0.39 µg/mL
CC[C@H]1OC(=O)[C@H](C)C(=O)[C@H](C)[C@@H](O[C@@H]2O[C@H](C)C[C@H](N(C)C)[C@H]2O)[C@](C)(OC/C=C/c2cncc(-c3ccsc3)c2)C[C@@H](C)C(=O)[C@H](C)[C@H]2NC(=O)O[C@@]21C [Example 49],≤ 0.004,> 100,0.2,0.05,50,0.1,0.1,> 100,0.05,0.05,0.1,0.02,0.02,50,0.39,32,0.1,0.02,≤ 0.004,0.39,MIC [27]: 25 µg/mL; MIC [21]: > 100 µg/mL; MIC [22]: 0.03 µg/mL; MIC [23]: 0.02 µg/mL; MIC [24]: 0.05 µg/mL; MIC [26]: 0.05 µg/mL
CC[C@H]1OC(=O)[C@H](C)C(=O)[C@H](C)[C@@H](O[C@@H]2O[C@H](C)C[C@H](N(C)C)[C@H]2O)[C@](C)(OC/C=C/c2cncc(-c3cncc4ccccc34)c2)C[C@@H](C)C(=O)[C@H](C)[C@H]2NC(=O)O[C@@]21C [Example 48],≤ 0.004,> 100,0.2,0.1,> 100,0.2,0.2,> 100,0.2,0.05,0.2,0.05,0.02,> 100,0.78,16,0.2,0.05,≤ 0.004,0.78,MIC [27]: 100 µg/mL; MIC [21]: > 100 µg/mL; MIC [22]: 0.25 µg/mL; MIC [23]: 0.02 µg/mL; MIC [24]: 0.2 µg/mL; MIC [26]: 0.05 µg/mL
